| melting point [°C] | Compound |
| --- | --- |
| 116 to 118 | CCC(C)(C)NC(=S)Nc1cc(F)cc(Cl)c1 |
| 83.5 to 86 | C=C(C(=O)c1ccc(OC)c(Cl)c1Cl)c1ccccc1 |
| 170 to 173 | CNC(=O)Nc1ccc2c(c1)C(CN1CCC(c3ccc(F)cc3)CC1)CC2 (centres undefined) |
| 180 to 182 | CCCCCc1c(C(C)(C)O)nc(C(C)C)c(CO)c1-c1ccc(F)cc1 |
| 120 to 122 | CC(C)Cc1ccc(C2(C)Oc3ccc(C(=O)O)cc3O2)cc1 (single isomer, unassigned; (-)) |
| 184 to 185 | COc1cc(C)nc2c(OCc3c(Cl)ccc(NC(=O)CN4C(=O)c5ccccc5C4=O)c3Cl)cccc12 |
| 166 to 168 | CC1CN(c2ccc(F)cc2)N=C1NC=O (centres undefined) |
| 135 to 137 | CC(C(=O)O)c1ccc2oc(Cc3ccc(Cl)cc3)nc2c1 (centres undefined) |
| 135 to 141 | COc1ccc2[nH]c3c(c2c1)CC(OC(=O)c1ccccc1)CC3 (centres undefined) |
| 213 to 216 | O=C(O)c1cc(F)c(O)nc1Nc1ccc(F)cc1F |
| 214 to 217 | CC(=O)OCc1cccc(Cl)c1NS(=O)(=O)c1nc2nc(C)cc(C)n2n1 |
| 69 | CCCCCCCCCCCC(=O)c1c(-c2ccccc2)[nH]n(-c2ccccc2)c1=O |
| 254 to 257 | Cc1cccc(Cl)c1CNc1c(NC(C)(C)C)c(=O)c1=O |
| 172 to 174 | Nc1ccc(Oc2ccccc2-c2ccccc2Oc2ccc(N)c(N)c2)cc1N |
| 81 to 83 | COC(=O)CCc1cc2cc(C(F)(F)F)ccc2n1S(=O)(=O)c1ccccc1 |
| 146 to 148 | C1=C(CCCN2CCCCC2)c2ccccc2C12CCCCC2 |
| 75 to 76 | COC(=S)N=C(N)SC |
| 118 | CC(C)c1ccc(N(Cc2ccc(N(C)C)cc2)C(=O)C2CCSc3ccccc32)cc1 (centres undefined) |
| 196 to 198 | C=C(C)Cc1c(O)c2c(c3c1CC(C)(C)N=C3c1ccccc1)CC(C)(C)O2 |
| 117 to 118 | NCC(O)c1cc(Cl)cc(Cl)n1 (centres undefined) |
| 190 to 191 | CCCCc1nc(C(F)(F)C(F)(F)F)c(CO)n1Cc1ccc(-c2ccccc2C(=O)O)cc1 |
| 171 to 173 | O=C(CCC(=O)[C@H](Cc1ccccc1)NC(=O)c1ccccc1)N[C@@H](Cc1c[nH]c2ccccc12)C(=O)O |
| 109 to 113 | CC(c1oc2ccccc2c(=O)c1-c1ccccc1)n1nc(C#CC(C)(C)O)c2c(N)ncnc21 (centres undefined) |
| 103 to 105 | CC(Oc1cccc(C=Cc2ccc3ccc(Cl)cc3n2)c1)C(=O)O (single isomer, unassigned; (-)) |

| melting point [°C] | Compound |
| --- | --- |
| 81 to 84 | CCCCS(=O)(=O)Nc1ccc(CCCCOCCCCCCNCC(O)c2ccc(O)c(CO)c2)cc1 (centres undefined) |
| 198 to 200 | CS(=O)(=O)Nc1ccc(C(=O)CCC(=O)O)cc1 |
| 110 to 111 | CCOc1ccc2c(c1)C(Cl)Cc1ccc(F)cc1S2 (centres undefined) |
| 243 to 245 | CC1CCc2c(N3CCCC3)c(F)cc3c(=O)c(C(=O)O)cn1c23 (centres undefined) |
| 157 to 159 | CCN(CC)C(=O)N[C@H]1CC[C@H](CCN2CCN(c3cccc4c3CCC4)CC2)CC1 |
| 60 to 61.5 | CC(C)(CCCCC(=O)CCCCC(C)(C)C(=O)O)C(=O)O |
| 155 to 156 | CCCC(CCC)(CC(=O)Nc1cccc(OCc2ccc3ccc(F)cc3n2)c1)C(=O)O |
| 95 | O=C1CCC(c2cccc(F)c2)(c2cccc(F)c2)CC1 |
| 199 to 201 | COc1cc(Nc2c(C#N)cnc3cc(-c4ccc(CN(C)C)cc4)sc23)cc(OC)c1OC |
| 121 to 122 | Cc1oc(-c2ccccc2)nc1COc1ccc(Sc2nc(-c3ccccc3)c(CCC(=O)O)s2)cc1 |
| 108 to 110 | COc1ccc(-c2cc(=O)n(Cc3ccc(Cl)c(Cl)c3)nc2-c2ccc(OC)cc2)cc1 |
| 70 to 72 | CCOC(=O)CCCCNc1ncc([N+](=O)[O-])cc1[N+](=O)[O-] |
| 108 to 110 | CCOc1nc2ccccc2nc1NC(=O)N1CCN(c2cccc(C)c2C)CC1 |
| 173 to 174 | CC1=C(C#CC2=C(/C=C/C(C)=C/C(=O)O)CCC2)C(C)(C)CCC1 |
| 116 to 117 | CC(Br)C(=O)c1cc(C(N)=O)cs1 (centres undefined) |
| 154 to 155 | O=c1c2cccc3ncc(c(=O)n1CCCCNS(=O)(=O)CC(F)(F)F)n32 |
| 161 to 163 | COc1ccc(NC(=O)c2ccccc2-c2cccc(F)c2)cc1 |
| 164 to 165 | CCc1nn2ccc3c(c2c1C(C)=O)CCO3 |
| 225 to 227 | CC(C)(C)n1nc(Nc2ccccc2)c(C(N)=O)c1N |
| 172 to 174 | CCc1cc2[nH]c(=O)cc(Cl)c2c(CC)n1 |
| 72 to 74 | COC(=O)[C@H](CS)NC(=O)[C@H](CO)NC(=O)OC(C)(C)C |
| 260 | CCn1c(N)c(-c2ncc[nH]2)c(=O)c2ccc(C#CC(O)(c3ccccc3)C(F)(F)F)nc21 (centres undefined) |
| 78 to 80 | Cc1sc2c(c1Br)C(=O)N(CCCCCl)CCC2 |
| 107 to 109 | O=C(Nc1ccc(Br)c(Br)c1[N+](=O)[O-])C(F)(F)F |

| melting point [°C] | Compound |
| --- | --- |
| 39 to 40 | CCCCCCCCCCCCCCCCOCC(CC(CCCCCCCCCCCCCC)C(=O)NCCO)OCc1ccccc1 (centres undefined) |
| > 305 | Nc1ccc(NC(=O)Nn2cnc3ccccc3c2=O)cc1 |
| 195 to 198 | CS(=O)(=O)c1ccc(N)c([N+](=O)[O-])c1 |
| 141 to 143 | CC(C)(C)NC(=O)[C@@H]1C[C@H](Cl)CN1C(=O)[C@@H](O)[C@H](Cc1ccccc1)NC(=O)[C@H](CC(N)=O)NC(=O)c1cc2cc(F)ccc2[nH]1 |
| 110 to 112 | CC(C)(C)OC(=O)C(O)CC1CCC(=O)N1 (centres undefined) |
| 195 to 198 | O=Cc1cnn(-c2ccc(C(F)(F)F)cc2[N+](=O)[O-])c1Br |
| 145 to 146 | COc1cccc(NC(=O)c2ccc(F)c([N+](=O)[O-])c2)c1 |
| 91 to 93 | Cc1c(SCCN2CCOCC2)ccnc1CSc1nc2ccccc2s1 |
| 181 | NC(=O)N(O)CC#Cc1cccc(C2=N[C@H](c3ccc(F)cc3)CO2)c1 |
| 117 to 118 | O=c1ccc(-c2c(-c3ccccc3)nn3ccccc23)nn1C1CCCC(O)C1 (centres undefined) |
| 139 to 142 | O=c1oc(-c2ccc(OCc3ccccc3)cc2)cc(O)c1SCCc1ccccc1 |
| 133 to 134 | CCCS(=O)(=O)Nc1c(C)c(C)c2c(c1C)C(c1ccc(C(C)C)cc1)CO2 (centres undefined) |
| 165 to 167 | O=C(OCc1ccc([N+](=O)[O-])cc1)C(=O)c1ccccc1C(=O)O |
| 237 to 238 | COc1cc2nc(N3CCN(C(=O)C=Cc4ccc(C(C)C)cc4)CC3)nc(N)c2cc1OC |
| 245 to 247 | Cn1cccc1C(=O)Nc1nc(-c2cccc(C#N)c2)c(-n2cncn2)s1 |
| > 250 | CS(=O)(=O)c1ccc(-c2cnn(Cc3ccccc3)c(=O)c2-c2ccc3c(c2)COC3=O)cc1 |
| 93 to 94 | OCCN=C1c2ccccc2CCc2ccccc21 |
| 63 to 64 | COc1ccc(-c2cccc(F)c2)cc1 |
| 79.5 to 80 | CC(C)(C)C(=O)c1ccc(COc2ccccc2)cc1 |
| 88 to 93 | COc1cc(C)c(C(=O)c2c(C)cncc2Br)c(OC)c1OC |
| 92 to 94 | COC(=O)CNc1cccc(OCc2ccccc2)c1 |
| 167 to 169 | Cc1c(-c2ccccc2)c(N2CC[C@H](N(C)C)C2)c2oc(N3CC(C)(O)C3)nc2c1C#N |
| 117 to 121 | CC(NC(=S)N1CCc2c([nH]c3ccccc23)C1c1ccc2c(c1)OCO2)c1ccccc1 (centres undefined) |
| 57 to 58 | Brc1ccc(N=NSc2ccccc2)c2ccccc12 |

| melting point [°C] | Compound |
| --- | --- |
| 176 to 178 | COCCOc1ccc(/C=C/C(=O)O)c(OCc2ccc(Cl)cc2Cl)c1 |
| 138 to 139 | Cc1nnc(-c2ccc3occ(-c4cccc(F)c4)c3c2)o1 |
| 110 to 112 | CCc1nc2c(cnn2CC)c(NC2CCOCC2)c1CNC(=O)c1cccc(C(=O)NCc2ccc(OC)c(-c3cccc(CN4CCNC(C)C4)c3)c2)c1 (centres undefined) |
| 115 | C#Cc1ccc(N(c2ccc(C#C)cc2)c2ccc(C#C)cc2)cc1 |
| 142 to 143 | CC(C)c1cccc(CCC(O)CCCC2CCCCC2)c1NC(=O)CC1c2ccccc2Oc2ccccc21 (centres undefined) |
| 183 to 186 | COC(=O)c1nc(Cl)c(F)c(NC(C)=O)c1Cl |
| 69 to 71 | COc1ccc(OCCO)cc1 |
| 211 to 212 | CCOC(=O)c1cc2c(C)ccc(O)c2[nH]1 |
| 114 to 115 | CCc1ccc2oc(=O)c([N+](=O)[O-])c(O)c2c1 |
| 114 to 115 | COc1cc(-c2cc(O)c(SCCc3ccccc3)c(=O)o2)ccc1OCc1ccccc1 |
| 52 to 53 | CCOC(=O)c1nnc(N(C)C)n1C |
| 184 | Cc1ccc(-c2ncc(OC3SCC(O)C(O)C3O)cc2F)cn1 (centres undefined) |
| 193 to 195 | CCOC(=O)c1cc(-c2ccncc2)[nH]c1N |
| 147 to 149 | Cc1cn2c(n1)C(=O)CCC2 |
| 122 | COC(=O)COc1ccc(-c2c(Br)ccc3sc4ccccc4c23)cc1 |
| 200 to 204 | O=C(Cn1nnc2ccccc21)Nc1ccc(-n2nc(C(F)(F)F)cc2C2CC2)cc1 |
| 223 | CN(C(=O)C(Cl)(Cl)Cl)c1nc(C(Cl)(Cl)Cl)ns1 |
| 106 | CCOC(=O)c1nc2ccccn2c1-c1ccccc1 |
| 230 | Cc1nnsc1C(=O)Nc1ccc(-n2nc(-c3nccs3)cc2C#N)cc1 |
| 73 to 74 | Cc1cc(C(=CNc2ccc(O)cc2)C(=O)c2ccccc2)on1 |
| 188 to 190 | CCOCc1nc2c(N)nc3cc(/C=C/S(=O)(=O)c4ccccc4)ccc3c2n1CCCOC(C)C |
| 140 | COc1ccc(C)cc1NC(=O)Nc1ccc(N2CCNCC2)cc1 |
| 127 to 129 | COC(=O)c1cc(OC)c([N+](=O)[O-])cc1N |

| Compound | melting point [°C] |
| --- | --- |
| Cc1nnc2n1-c1sc(Cl)cc1C(c1c(F)cccc1F)=NC2 | 185 to 187 |
| CN1CCc2c(Cl)ccc3c4c(n(c23)CC1)CCCCC4 | 132 to 134 |
| CC(=O)OC1CCC2C3CCC4=CC(=O)CCC4(CO)C3CCC12C (centres undefined) | 166 to 168 |
| Cc1nc(C(=O)NN)c2n1-c1ccc(Cl)cc1C(c1ccccc1F)=NC2 | 235 to 237 |
